Assay results: patent US9302999B2, “Substituted triazoles as herbicides” (E. I. DU PONT DE NEMOURS AND COMPANY, priority 2012, dated 2016)
Where two headings read alike, the source gives them in different places.

Key:
corn (Zea mays) = assay: Test A pre-/postemergence: corn; format: in vivo
Procedure, shortened: (§1)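 Plants in loam–sand blend were treated with test chemicals in non-phytotoxic solvent with surfactant, either as preemergence directed soil spray or postemergence at 2–10 cm, one- to two-leaf stage. After about ten days in greenhouse, injury was rated visually against untreated controls on a 0–100 scale (100 = complete control).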

[1] = tested on: ducksalad (Heteranthera limosa); assay: Test B flooded paddy: ducksalad; format: in vivo; details: Flood; 250 g ai/ha; applied to paddy water at 2-leaf stage; visually evaluated after 13 to 15 days
Procedure, shortened: (§2)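 Two-leaf-stage plants, pots flooded (3 cm above soil) and treated through the water, which stayed at that depth. After 13–15 days in greenhouse conditions, visual assessment versus controls: 0 is no effect, 100 complete control, dash means no result.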

[2] = tested on: ragweed (common ragweed, Ambrosia elation); assay: Test C pre-/postemergence: ragweed; format: in vivo
Procedure, shortened: (§3)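 Visual injury scored 0–100 (100 = complete control) against untreated controls after 13–15 greenhouse days. Surfactant-containing solvent formulations applied either to soil after sowing (loam/sand) or over 1- to 4-leaf plants, 2–18 cm tall.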

[3] = tested on: pigweed (Amaranthus retroflexus); assay: Test A pre-/postemergence: pigweed; format: in vivo; details: for pest or weed control at 125 g/ha / pest or weed control at 500 g/ha: Amaranthus retroflexus, 240 h
Procedure, shortened: as §1

[4] = tested on: wheat (Triticum aestivum); assay: Test A pre-/postemergence: wheat; format: in vivo; details: for plant injury at 125 g/ha / plant injury at 500 g/ha: Triticum aestivum, 240 h
Procedure, shortened: as §1

[5] = tested on: sedge, umbrella (small-flower umbrella sedge Cyperus difformis); assay: Test B flooded paddy: sedge, umbrella; format: in vivo; details: Flood; 250 g ai/ha; applied to paddy water at 2-leaf stage; visually evaluated after 13 to 15 days
Procedure, shortened: as §2

[6] = tested on: morningglory (Ipomoea coccinea); assay: Test C pre-/postemergence: morningglory; format: in vivo
Procedure, shortened: as §3

Oilseed Rape = assay: Test C postemergence: oilseed rape; format: in vivo, Brassica napus; details: 125 g ai/ha, scale 0 to 100, 0 no effect, 100 complete control
From the text: Seeds of plant species selected from blackgrass (Alopecurus myosuroides), bromegrass, downy (downy bromegrass, Bromus tectorum), foxtail, green (green foxtail, Setaria viridis), ryegrass, Italian (Italian ryegrass, Lolium multiflorum), winter wheat (Triticum aestivum), wild oat (Avena fatua), galium (catchweed bedstraw, Galium aparine), bermudagrass (Cynodon dactylon), surinam grass (Brachiaria decumbens), cocklebur (common cocklebur, Xanthium strumarium), corn (Zea mays), large crabgrass (Digitaria sanguinalis), woolly cupgrass (Eriochloa villosa), foxtail, giant (giant foxtail, Setaria faberii), goosegrass (Eleusine indica), johnsongrass (Sorghum halepense), kochia (Kochia scoparia), lambsquarters (Chenopodium album), morningglory (Ipomoea coccinea), nightshade (eastern black nightshade, Solanum ptycanthum), nutsedge, yellow (yellow nutsedge, Cyperus esculentus), pigweed (Amaranthus retroflexus), ragweed (common ragweed, Ambrosia elation), soybean (Glycine max), common (oilseed) sunflower (Helianthus annuus), Russian thistle (Salsola kali) and velvetleaf (Abutilon theophrasti) were planted into a blend of loam soil and sand and treated preemergence with test chemicals formulated in a non-phytotoxic solvent mixture which included a surfactant.
At the same time, plants selected from these crop and weed species and also barley (winter barley, Hordeum vulgare), canarygrass (Phalaris minor), chickweed (common chickweed, Stellaria media) windgrass (Apera spica-venti) and deadnettle (henbit deadnettle, Lamium amplexicaule) were planted in pots containing Redi-Earth® planting medium (Scotts Company, 14111 Scottslawn Road, Marysville, Ohio 43041) comprising spaghnum peat moss, vermiculite, wetting agent and starter nutrients and treated with postemergence applications of test chemicals formulated in the same manner. Plants ranged in height from 2 to 18 cm (1- to 4-leaf stage) for postemergence treatments.
Treated plants and controls were maintained in a greenhouse for 13 to 15 days, after which time all species were compared to controls and visually evaluated. Plant response ratings, summarized in Table C, are based on a scale of 0 to 100 where 0 is no effect and 100 is complete control. A dash (-) response means no test result.

[7] = tested on: lambsquarters (Chenopodium album); assay: Test C pre-/postemergence: lambsquarters; format: in vivo
Procedure, shortened: as §3

[8] = tested on: common (oilseed) sunflower (Helianthus annuus); assay: Test C pre-/postemergence: sunflower; format: in vivo; details: Preemergence
Procedure, shortened: as §3

[9] = tested on: bermudagrass (Cynodon dactylon); assay: Test C pre-/postemergence: bermudagrass; format: in vivo
Procedure, shortened: as §3

[10] = Postemergence, 125 g ai/ha, 0 to 100 scale, 0 is no effect, 100 is complete control
[11] = Postemergence, 500 g ai/ha, visual rating on 0 to 100 scale (0 no effect, 100 complete control), approximately ten days
[12] = Preemergence, 125 g ai/ha, 0 to 100 scale where 0 is no effect and 100 is complete control
[13] = Preemergence, 500 g ai/ha, 0 to 100 scale (0 no effect, 100 complete control)
[14] = Postemergence, 31 g ai/ha, scale 0 to 100 (0 no effect, 100 complete control)
[15] = Postemergence, 62 g ai/ha, scale 0 to 100 (0 no effect, 100 complete control)
[16] = Postemergence, 125 g ai/ha, scale 0 to 100, 0 no effect, 100 complete control
[17] = Postemergence, 250 g ai/ha, scale 0 to 100
[18] = Preemergence, 31 g ai/ha, scale of 0 to 100, 0 is no effect, 100 is complete control
[19] = Preemergence, 62 g ai/ha, scale of 0 to 100, 0 is no effect, 100 is complete control
[20] = Preemergence, 125 g ai/ha, scale 0 to 100, 0 no effect, 100 complete control
[21] = Preemergence, 250 g ai/ha, scale 0 to 100, 0 no effect, 100 complete control
[22] = Postemergence, 250 g ai/ha, scale 0 to 100 (0 no effect, 100 complete control)
[23] = Preemergence, 31 g ai/ha, scale 0 (no effect) to 100 (complete control)
[24] = Preemergence, 62 g ai/ha, scale 0 to 100, 0 no effect, 100 complete control

## CCc1nn(-c2ccc(F)cc2)nc1Cc1ccnc(C(F)(F)F)c1 [Compound 154]
Corn (Zea mays); [10]
  Plant response rating, Corn: 30
Corn (Zea mays); [11]
  Corn plant response rating: 80
Corn (Zea mays); [12]
  Plant response rating, Corn: 20
Corn (Zea mays); [13]
  Plant response rating, Corn: 70
[1]
  Plant response rating, Ducksalad (0 to 100 scale, 0 is no effect, 100 is complete control): 80
[2]; [14]
  Plant response rating, Ragweed: 30
[2]; [15]
  Plant response rating, Ragweed: 30
[2]; [16]
  Plant response rating, Ragweed: 30
[2]; [17]
  Plant response rating, Ragweed: 40
[2]; [18]
  Plant response rating, Ragweed: 0
[2]; [19]
  Plant response rating, Ragweed: 0
[2]; [20]
  Plant response rating, Ragweed: 50
[2]; [21]
  Plant response rating, Ragweed: 70
[3]; [10]
  Plant response rating, Pigweed: 100
[3]; [11]
  Pigweed plant response rating: 100
[3]; [12]
  Plant response rating, Pigweed: 100
[3]; [13]
  Plant response rating, Pigweed: 100
[4]; [10]
  Plant response rating, Wheat: 20
[4]; [11]
  Wheat plant response rating: 50
[4]; [12]
  Plant response rating, Wheat: 0
[4]; [13]
  Plant response rating, Wheat: 20
[5]
  Plant response rating, Sedge, Umbrella (0 to 100 scale, 0 is no effect, 100 is complete control): 80
[6]; [14]
  Plant response rating, Morningglory: 40
[6]; [15]
  Plant response rating, Morningglory: 75
[6]; [16]
  Plant response rating, Morningglory: 75
[6]; [17]
  Plant response rating, Morningglory: 98
[6]; [18]
  Plant response rating, Morningglory: 0
[6]; [19]
  Plant response rating, Morningglory: 5
[6]; [20]
  Plant response rating, Morningglory: 5
[6]; [21]
  Plant response rating, Morningglory: 25
Oilseed Rape
  Plant response rating, Oilseed Rape: 95
[7]; [14]
  Plant response rating, Lambsquarters: 75
[7]; [15]
  Plant response rating, Lambsquarters: 98
[7]; [16]
  Plant response rating, Lambsquarters: 98
[7]; [17]
  Plant response rating, Lambsquarters: 98
[7]; [18]
  Plant response rating, Lambsquarters: 100
[7]; [19]
  Plant response rating, Lambsquarters: 100
[7]; [20]
  Plant response rating, Lambsquarters: 100
[7]; [21]
  Plant response rating, Lambsquarters: 100

## CCOc1nn(-c2ccc(F)cc2)nc1Cc1ccnc(C(F)(F)F)c1 [Compound 196, 4-[[5-ethoxy-2-(4-fluorophenyl)-2H-1,2,3-triazol-4-yl]methyl]-2-(trifluoromethyl)pyridine]
Corn (Zea mays); Zea mays, post-emergence, 240 h, Postemergence, 125 g ai/ha, 0 to 100 scale, 0 is no effect, 100 is complete control
  Corn plant response rating (crop injury, 0 = no effect, 100 = complete kill) at 125 g/ha: 70%
Corn (Zea mays); Zea mays, post-emergence, 240 h, Postemergence, 500 g ai/ha, 0 to 100 scale, 0 is no effect, 100 is complete control, read-out: Corn plant response rating
  plant injury at 500 g/ha: 80%
Corn (Zea mays); Zea mays, pre-emergence, 240 h, Preemergence, 125 g ai/ha, 0 to 100 scale where 0 is no effect and 100 is complete control
  Corn plant response rating (crop injury, 0 = no effect, 100 = complete kill) at 125 g/ha: 30%
Corn (Zea mays); Zea mays, pre-emergence, 240 h, Preemergence, 500 g ai/ha, 0 to 100 scale (0 no effect, 100 complete control)
  Corn plant response rating (crop injury, 0 = no effect, 100 = complete kill) at 500 g/ha: 50%
[8]; 31 g ai/ha, scale 0 (no effect) to 100 (complete control)
  Plant response rating, Sunflower: 5
[8]; 62 g ai/ha, scale 0 to 100, 0 no effect, 100 complete control
  Plant response rating, Sunflower: 20
[8]; 125 g ai/ha, scale 0 to 100, 0 no effect, 100 complete control
  Plant response rating, Sunflower: 30
[8]; 250 g ai/ha, scale 0 to 100, 0 no effect, 100 complete control
  Plant response rating, Sunflower: 40
[1]
  Plant response rating, Ducksalad (0 to 100 scale, 0 is no effect, 100 is complete control): 100
[2]; [14]
  Plant response rating, Ragweed: 70
[2]; [15]
  Plant response rating, Ragweed: 85
[2]; [16]
  Plant response rating, Ragweed: 90
[2]; [22]
  Plant response rating, Ragweed: 90
[2]; [23]
  Plant response rating, Ragweed: 40
[2]; [24]
  Plant response rating, Ragweed: 60
[2]; [20]
  Plant response rating, Ragweed: 80
[2]; [21]
  Plant response rating, Ragweed: 90
[3]; post-emergence, Postemergence, 125 g ai/ha, 0 to 100 scale, 0 is no effect, 100 is complete control, read-out: Plant response rating, Pigweed
  pest or weed control at 125 g/ha: 100%
[3]; post-emergence, Postemergence, 500 g ai/ha, 0 to 100 scale, 0 is no effect, 100 is complete control, read-out: Pigweed plant response rating
  pest or weed control at 500 g/ha: 100%
[3]; pre-emergence, Preemergence, 125 g ai/ha, 0 to 100 scale where 0 is no effect and 100 is complete control, read-out: Plant response rating, Pigweed
  pest or weed control at 125 g/ha: 100%
[3]; pre-emergence, Preemergence, 500 g ai/ha, 0 to 100 scale (0 no effect, 100 complete control), read-out: Plant response rating, Pigweed
  pest or weed control at 500 g/ha: 100%
[4]; post-emergence, Postemergence, 125 g ai/ha, 0 to 100 scale, 0 is no effect, 100 is complete control, read-out: Plant response rating, Wheat
  plant injury at 125 g/ha: 50%
[4]; post-emergence, Postemergence, 500 g ai/ha, 0 to 100 scale, 0 is no effect, 100 is complete control, read-out: Wheat plant response rating
  plant injury at 500 g/ha: 70%
[4]; pre-emergence, Preemergence, 125 g ai/ha, 0 to 100 scale where 0 is no effect and 100 is complete control, read-out: Plant response rating, Wheat
  plant injury at 125 g/ha: 50%
[4]; pre-emergence, Preemergence, 500 g ai/ha, 0 to 100 scale (0 no effect, 100 complete control), read-out: Plant response rating, Wheat
  plant injury at 500 g/ha: 70%
[5]
  Plant response rating, Sedge, Umbrella (0 to 100 scale, 0 is no effect, 100 is complete control): 100
[6]; [14]
  Plant response rating, Morningglory: 75
[6]; [15]
  Plant response rating, Morningglory: 75
[6]; [16]
  Plant response rating, Morningglory: 75
[6]; [22]
  Plant response rating, Morningglory: 75
[6]; [23]
  Plant response rating, Morningglory: 40
[6]; [24]
  Plant response rating, Morningglory: 85
[6]; [20]
  Plant response rating, Morningglory: 100
[6]; [21]
  Plant response rating, Morningglory: 100
[9]; [14]
  Plant response rating, Bermudagrass: 80
[9]; [15]
  Plant response rating, Bermudagrass: 80
[9]; [16]
  Plant response rating, Bermudagrass: 85
[9]; [17]
  Plant response rating, Bermudagrass: 90
[9]; [23]
  Plant response rating, Bermudagrass: 98
[9]; [24]
  Plant response rating, Bermudagrass: 98
[9]; [20]
  Plant response rating, Bermudagrass: 100
[9]; [21]
  Plant response rating, Bermudagrass: 100
[7]; [14]
  Plant response rating, Lambsquarters: 95
[7]; [15]
  Plant response rating, Lambsquarters: 95
[7]; [16]
  Plant response rating, Lambsquarters: 95
[7]; [22]
  Plant response rating, Lambsquarters: 95
[7]; [23]
  Plant response rating, Lambsquarters: 85
[7]; [24]
  Plant response rating, Lambsquarters: 90
[7]; [20]
  Plant response rating, Lambsquarters: 95
[7]; [21]
  Plant response rating, Lambsquarters: 95
